According to patent publication US10292968B2, “Substituted heterocycles as bromodomain inhibitors” (Zenith Epigenetics Ltd., priority 2014, dated 2019):
Counter-ions that a name gives are not always drawn.

Experiments:
[1] = target: T1, Brd4 bromodomain 1 (BRD4(1)) (Homo sapiens, UniProt O60885); experiment: AlphaScreen inhibition of tetra-acetylated histone H4 binding to BRD4(1); conditions: BRD4(1) at 20 nM, tetra-acetylated histone H4 peptide, 30 min incubation; for IC50: read-out: Alpha Screen BRD4(1)
T1 construct: N-terminally His-tagged bromodomains (BRD4(1) at 20 nM and BRD4(2) at 100 nM); made in house; host or cells: E. coli BL21(DE3)
Procedure: (§1) Proteins were cloned and overexpressed with a N-terminal 6×His tag, then purified by nickel affinity followed by size exclusion chromatography. Briefly, E. coli BL21(DE3) cells were transformed with a recombinant expression vector encoding N-terminally Nickel affinity tagged bromodomains from Brd2, Brd3, Brd4. Cell cultures were incubated at 37° C. with shaking to the appropriate density and induced overnight with IPTG. The supernatant of lysed cells was loaded onto Ni-IDA column for purification. Eluted protein was pooled, concentrated and further purified by size exclusion chromatography. Fractions representing monomeric protein were pooled, concentrated, aliquoted, and frozen at −80° C. for use in subsequent experiments.
(§2) Binding of tetra-acetylated histone H4 peptide (Millipore) and BET bromodomains was confirmed by Amplified Luminescent Proximity Homogenous Assay (AlphaScreen). N-terminally His-tagged bromodomains (BRD4(1) at 20 nM and BRD4(2) at 100 nM) and biotinylated tetra-acetylated histone H4 (10-25 nM) were incubated in the presence of nickel chelate acceptor beads and streptavidin donor beads (PerkinAlmer, 6760000K) added to a final concentration of 2 μg/ml under green light in a white 96 well microtiter plate (Greiner). For inhibition assays, serially diluted compounds were added to the reaction mixtures in a 0.1% final concentrations of DMSO. Final buffer concentrations were 50 mM HEPES, 100 mM NaCl and 0.1% BSA buffer, pH 7.4 and optimized to 30 min incubation time. Assay plates were read at 570 nm on a Synergy H4 Plate Reader (Biotek). IC50 values were determined from a dose response curve.

[2] = target: T2, Brd 4 bromodomain 2 (BRD4(2)) (Homo sapiens, UniProt O60885); experiment: AlphaScreen inhibition of tetra-acetylated histone H4 binding to BRD4(2); conditions: BRD4(2) at 100 nM, tetra-acetylated histone H4 peptide, 30 min incubation; for IC50: read-out: Alpha Screen BRD4(2)
T2 construct: N-terminally His-tagged bromodomains (BRD4(1) at 20 nM and BRD4(2) at 100 nM); made in house; host or cells: E. coli BL21(DE3)
Procedure: as §1, §2

cMYC = experiment: Inhibition of cMYC expression (mRNA, real-time PCR) in MV4-11 cells; type: cell-based; conditions: Human AML MV4-11 cells, 3 h; for IC50: read-out: c-myc activity
Procedure: MV4-11 cells (CRL-9591) were plated at a density of 2.5×10^4 cells per well in 96 well U-bottom plates and treated with increasing concentrations of test compound or DMSO (0.1%) in IMDM media containing 10% FBS and penicillin/streptomycin, and incubated for 3 h at 37° C. Triplicate wells were used for each concentration. Cells were pelleted by centrifugation and harvested using the mRNA Catcher PLUS kit according to manufacturer's instructions. The eluted mRNA isolated was then used in a one-step quantitative real-time PCR reaction, using components of the RNA UltraSense™ One-Step Kit (Life Technologies) together with Applied Biosystems TaqMan® primer-probes for cMYC and Cyclophilin. Real-time PCR plates were run on a ViiA™7 real time PCR machine (Applied Biosystems), data was analyzed, normalizing the Ct values for cMYC to an internal control, prior to determining the fold expression of each sample, relative to the control.

MV4-11 cells = experiment: Inhibition of cell proliferation in MV4-11 cells (Cell Titer Aqueous One); type: cell-based; conditions: Human AML MV-4-11 cells, 72 h; for IC50: MV4-11
Procedure: MV4-11 cells (CRL-9591) were plated at a density of 5×10^4 cells per well in 96 well flat bottom plates and treated with increasing concentrations of test compound or DMSO (0.1%) in IMDM media containing 10% FBS and penicillin/streptomycin. Triplicate wells were used for each concentration and a well containing only media was used as a control. Plates were incubated at 37° C., 5% CO2 for 72 h before adding 20 μL of the Cell Titer Aqueous One Solution (Promega) to each well and incubated at 37° C., 5% CO2 for an additional 3-4 h. The absorbance was read at 490 nm in a spectrophotometer and the percentage of cell titer relative to DMSO-treated cells was calculated after correcting for background by subtracting the blank well's signal. IC50 values were calculated using the GraphPad Prism software.

| SMILES | IC50 [1] | IC50 [2] | also measured |
| --- | --- | --- | --- |
| Cn1ncc2cc(-c3[nH]c(-c4ccccc4)nc3-c3n[nH]c(=O)n3C3CC3)ccc21 [Example 10, 4-cyclopropyl-3-(5-(1-methyl-1H-indazol-5-yl)-2-phenyl-1H-imidazol-4-yl)-1H-1,2,4-triazol-5(4H)-one hydrochloride] | 3 to 30 µM | 0.3 to 3 µM | c-myc activity (cMYC): Not Active; Cell Proliferation activity (MV4-11 cells): Not Active |
| COC(=O)c1ccc(C)c(-c2[nH]c(-c3ccccc3)nc2-c2n[nH]c(=O)n2C2CC2)c1 [Example 2, methyl 3-(4-(4-cyclopropyl-5-oxo-4,5-dihydro-1H-1,2,4-triazol-3-yl)-2-phenyl-1H-imidazol-5-yl)-4-methyl benzoate hydrochloride] | 3 to 30 µM | 3 to 30 µM | c-myc activity (cMYC): Not Active; Cell Proliferation activity (MV4-11 cells): Not Active |
| Cc1nn(C)c2ccc(-c3[nH]c(-c4ccccc4)nc3-c3n[nH]c(=O)n3C3CC3)cc12 [Example 15, 4-cyclopropyl-3-(5-(1,3-dimethyl-1H-indazol-5-yl)-2-phenyl-1H-imidazol-4-yl)-1H-1,2,4-triazol-5(4H)-one hydrochloride] | 0.3 to 3 µM | 3 to 30 µM |  |
| Cc1n[nH]c2ccc(-c3[nH]c(-c4ccccc4)nc3-c3n[nH]c(=O)n3C3CC3)cc12 [Example 13, 4-cyclopropyl-3-(5-(3-methyl-1H-indazol-5-yl)-2-phenyl-1H-imidazol-4-yl)-1H-1,2,4-triazol-5(4H)-one hydrochloride] | 0.3 to 3 µM | 0.3 to 3 µM | IC50 (cMYC): 3 to 30 µM; IC50 (MV4-11 cells): 3 to 30 µM |
| CC(=O)c1cncc(-c2[nH]c(-c3ccccc3)nc2-c2n[nH]c(=O)n2C2CC2)c1 [Example 12, 3-(5-(5-acetylpyridin-3-yl)-2-phenyl-1H-imidazol-4-yl)-4-cyclopropyl-1H-1,2,4-triazol-5(4H)-one formate] | 3 to 30 µM | 0.3 to 3 µM |  |
| Cc1noc2ccc(-c3[nH]c(-c4ccccc4)nc3-c3n[nH]c(=O)n3C3CC3)cc12 [Example 16, 4-cyclopropyl-3-(5-(3-methylbenzo[d]isoxazol-5-yl)-2-phenyl-1H-imidazol-4-yl)-1H-1,2,4-triazol-5(4H)-one] | ≤ 0.3 µM | 0.3 to 3 µM |  |
| Cn1ncc2ccc(-c3[nH]c(-c4ccccc4)nc3-c3n[nH]c(=O)n3CC3CC3)cc21 [Example 17, 4-(cyclopropylmethyl)-3-(5-(1-methyl-1H-indazol-6-yl)-2-phenyl-1H-imidazol-4-yl)-1H-1,2,4-triazol-5(4H)-one] |  |  | Alpha Screen BRD4(1) [1]: Not Active; Alpha Screen BRD4(2) [2]: Not Active |
| CC(=O)c1ccc(C)c(-c2[nH]c(-c3ccccc3)nc2-c2n[nH]c(=O)n2C2CC2)c1 [Example 11, 3-(5-(5-acetyl-2-methylphenyl)-2-phenyl-1H-imidazol-4-yl)-4-cyclopropyl-1H-1,2,4-triazol-5(4H)-one hydrochloride] | 3 to 30 µM |  | Alpha Screen BRD4(2) [2]: Not Active |
| CCC(=O)c1cccc(-c2[nH]c(-c3ccccc3)nc2-c2n[nH]c(=O)n2C2CC2)c1 [Example 6, 4-cyclopropyl-3-(2-phenyl-5-(3-propionylphenyl)-1H-imidazol-4-yl)-1H-1,2,4-triazol-5(4H)-one hydrochloride] | 0.3 to 3 µM | 3 to 30 µM | IC50 (cMYC): 3 to 30 µM; IC50 (MV4-11 cells): 3 to 30 µM |
| O=C1CCc2ccc(-c3[nH]c(-c4ccccc4)nc3-c3n[nH]c(=O)n3C3CC3)cc21 [Example 5, 4-cyclopropyl-3-(5-(3-oxo-2,3-dihydro-1H-inden-5-yl)-2-phenyl-1H-imidazol-4-yl)-1H-1,2,4-triazol-5(4H)-one hydrochloride] |  |  | Alpha Screen BRD4(1) [1]: Not Active; Alpha Screen BRD4(2) [2]: Not Active |
| CNC(=O)c1cccc(-c2[nH]c(-c3ccccc3)nc2-c2n[nH]c(=O)n2C2CC2)c1 [Example 3, 3-(4-(4-cyclopropyl-5-oxo-4,5-dihydro-1H-1,2,4-triazol-3-yl)-2-phenyl-1H-imidazol-5-yl)-N-methyl benzamide hydrochloride] | 3 to 30 µM | 3 to 30 µM |  |

Continued, in another order:

| IC50 [1] | IC50 [2] | SMILES | also measured |
| --- | --- | --- | --- |
| ≤ 0.3 µM | 3 to 30 µM | Cn1ncc2ccc(-c3[nH]c(-c4ccncc4)nc3-c3n[nH]c(=O)n3C3CC3)cc21 [Example 23, 4-cyclopropyl-3-(5-(1-methyl-1H-indazol-6-yl)-2-(pyridin-4-yl)-1H-imidazol-4-yl)-1H-1,2,4-triazol-5(4H)-one dihydrochloride] |  |
| 0.3 to 3 µM | 3 to 30 µM | CC(C)Cn1c(-c2nc(-c3ccccc3)[nH]c2-c2ccc3cnn(C)c3c2)n[nH]c1=O [Example 18, 4-isobutyl-3-(5-(1-methyl-1H-indazol-6-yl)-2-phenyl-1H-imidazol-4-yl)-1H-1,2,4-triazol-5(4H)-one] | c-myc activity (cMYC): Not Active |
| 3 to 30 µM |  | Cn1nc(-c2nc(-c3ccccc3)[nH]c2-c2ccc3cnn(C)c3c2)n(C2CC2)c1=O [Example 27, 4-cyclopropyl-1-methyl-3-(5-(1-methyl-1H-indazol-6-yl)-2-phenyl-1H-imidazol-4-yl)-1H-1,2,4-triazol-5(4H)-one hydrochloride] | Alpha Screen BRD4(2) [2]: Not Active |
| 3 to 30 µM | 3 to 30 µM | CC(C)n1c(-c2nc(-c3ccccc3)[nH]c2-c2ccc3cnn(C)c3c2)n[nH]c1=O [Example 22, 4-isopropyl-3-(5-(1-methyl-1H-indazol-6-yl)-2-phenyl-1H-imidazol-4-yl)-1H-1,2,4-triazol-5(4H)-one] |  |
| 3 to 30 µM |  | Cn1ncc2ccc(-c3[nH]c(-c4ccccc4)nc3-c3n[nH]c(=O)n3C3CCCC3)cc21 [Example 21, 4-cyclopentyl-3-(5-(1-methyl-1H-indazol-6-yl)-2-phenyl-1H-imidazol-4-yl)-1H-1,2,4-triazol-5(4H)-one] | Alpha Screen BRD4(2) [2]: Not Active |
| 0.3 to 3 µM | 3 to 30 µM | Cn1ncc2ccc(-c3[nH]c(-c4ccccc4)nc3-c3n[nH]c(=O)n3CC(C)(C)C)cc21 [Example 20, 3-(5-(1-methyl-1H-indazol-6-yl)-2-phenyl-1H-imidazol-4-yl)-4-neopentyl-1H-1,2,4-triazol-5(4H)-one] |  |
| 3 to 30 µM | 3 to 30 µM | Cn1ncc2ccc(-c3[nH]c(-c4cccnc4)nc3-c3n[nH]c(=O)n3C3CC3)cc21 [Example 24, 4-cyclopropyl-3-(5-(1-methyl-1H-indazol-6-yl)-2-(pyridin-3-yl)-1H-imidazol-4-yl)-1H-1,2,4-triazol-5(4H)-one dihydrochloride] |  |
| 0.3 to 3 µM | 3 to 30 µM | Cn1ncc2ccc(-c3[nH]c(-c4ccccc4)nc3-c3n[nH]c(=O)n3C3CCC3)cc21 [Example 19, 4-cyclobutyl-3-(5-(1-methyl-1H-indazol-6-yl)-2-phenyl-1H-imidazol-4-yl)-1H-1,2,4-triazol-5(4H)-one] | IC50 (cMYC): 3 to 30 µM |
| 0.3 to 3 µM | 3 to 30 µM | Cn1cc(-c2nc(-c3n[nH]c(=O)n3C3CC3)c(-c3ccc4cnn(C)c4c3)[nH]2)cn1 [Example 25, 4-cyclopropyl-3-(5-(1-methyl-1H-indazol-6-yl)-2-(1-methyl-1H-pyrazol-4-yl)-1H-imidazol-4-yl)-1H-1,2,4-triazol-5(4H)-one hydrochloride] |  |
| 3 to 30 µM | 3 to 30 µM | Cn1ncc2ccc(-c3[nH]c(-c4cn[nH]c4)nc3-c3n[nH]c(=O)n3C3CC3)cc21 [Example 26, 4-cyclopropyl-3-(5-(1-methyl-1H-indazol-6-yl)-2-(1H-pyrazol-4-yl)-1H-imidazol-4-yl)-1H-1,2,4-triazol-5(4H)-one hydrochloride] |  |
